ChEMBL document CHEMBL5465560, “Selectivity Literature for EUbOPEN Chemogenomic Library” (2024)
One block for each compound: values may come before it.

How the values were obtained:
hERG (KCNH2) = hERG (KCNH2) (Homo sapiens, UniProt Q12809); experiment: Selectivity interaction (Eurofins CEREP Diversity Profile (receptors and ion channels)) EUB0000279b KCNH2; settings: at 10 µM, read-out: % of control
[1] = target: Phosphatidylinositol 4,5-bisphosphate 3-kinase catalytic subunit gamma isoform (Homo sapiens) (UniProt P48736); experiment: Selectivity interaction (Ambit KINOMEscan and KiNATiv profiling in Jurkat cells) EUB0000090b PIK3CG; assay type: cell-based; settings: at 1 µM
[2] = target: Calcium/calmodulin-dependent protein kinase type 1G (Homo sapiens) (UniProt Q96NX5); experiment: Selectivity interaction (KinomeScan (DiscoverX)) EUB0000655a CAMK1G; settings: at 10 µM
[3] = target: T1, Megakaryocyte-associated tyrosine-protein kinase (Homo sapiens) (UniProt P42679); experiment: Selectivity interaction (SelectScreen profiling (Invitrogen)) EUB0000607a MATK; settings: at 2 µM
T1 sequence (whole entry): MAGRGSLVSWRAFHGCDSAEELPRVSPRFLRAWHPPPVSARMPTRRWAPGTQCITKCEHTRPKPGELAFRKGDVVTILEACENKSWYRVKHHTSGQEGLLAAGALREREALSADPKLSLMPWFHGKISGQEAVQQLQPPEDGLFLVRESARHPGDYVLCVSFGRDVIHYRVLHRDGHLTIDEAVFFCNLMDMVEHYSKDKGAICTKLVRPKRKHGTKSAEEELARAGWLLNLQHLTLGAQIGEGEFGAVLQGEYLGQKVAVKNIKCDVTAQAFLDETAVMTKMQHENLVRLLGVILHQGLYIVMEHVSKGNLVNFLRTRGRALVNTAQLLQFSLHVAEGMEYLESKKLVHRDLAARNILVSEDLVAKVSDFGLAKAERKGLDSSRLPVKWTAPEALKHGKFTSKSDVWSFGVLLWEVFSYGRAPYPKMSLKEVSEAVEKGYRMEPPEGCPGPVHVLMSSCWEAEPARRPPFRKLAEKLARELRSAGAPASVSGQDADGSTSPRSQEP

[4] = target: T2, Serine/threonine-protein kinase D3 (Homo sapiens) (UniProt O94806); experiment: Selectivity interaction (KinomeScan (DiscoverX)) EUB0001619a PRKD3; settings: at 1 µM
T2 sequence (whole entry): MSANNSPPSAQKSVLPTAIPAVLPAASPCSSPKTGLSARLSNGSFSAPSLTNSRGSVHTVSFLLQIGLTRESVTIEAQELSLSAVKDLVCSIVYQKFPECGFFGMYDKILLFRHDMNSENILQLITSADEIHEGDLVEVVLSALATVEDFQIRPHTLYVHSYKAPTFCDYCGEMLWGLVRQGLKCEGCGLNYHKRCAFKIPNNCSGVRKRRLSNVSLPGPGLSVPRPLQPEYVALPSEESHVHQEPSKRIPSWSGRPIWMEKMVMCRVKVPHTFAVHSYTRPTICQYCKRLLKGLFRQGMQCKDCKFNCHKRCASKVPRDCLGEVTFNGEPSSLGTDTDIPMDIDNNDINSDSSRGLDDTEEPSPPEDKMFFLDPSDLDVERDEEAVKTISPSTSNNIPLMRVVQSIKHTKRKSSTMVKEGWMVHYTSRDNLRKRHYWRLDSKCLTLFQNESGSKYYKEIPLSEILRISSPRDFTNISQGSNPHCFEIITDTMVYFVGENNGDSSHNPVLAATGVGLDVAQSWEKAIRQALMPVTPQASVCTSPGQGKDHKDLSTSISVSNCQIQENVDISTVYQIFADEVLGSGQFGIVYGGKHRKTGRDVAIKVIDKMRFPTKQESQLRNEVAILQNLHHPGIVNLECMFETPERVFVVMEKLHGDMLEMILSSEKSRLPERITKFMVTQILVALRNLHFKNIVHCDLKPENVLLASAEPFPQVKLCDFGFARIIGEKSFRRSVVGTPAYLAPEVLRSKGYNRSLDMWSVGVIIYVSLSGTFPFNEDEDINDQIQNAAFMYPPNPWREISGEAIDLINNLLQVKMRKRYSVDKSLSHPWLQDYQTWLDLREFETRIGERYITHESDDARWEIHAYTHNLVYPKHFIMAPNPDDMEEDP

[5] = target: Calcium/calmodulin-dependent protein kinase type II subunit gamma (Homo sapiens) (UniProt Q13555); experiment: Selectivity interaction (ActivX KiNativ screen (ex vivo kinase selectivity in human PBMCs)) EUB0001619a CAMK2G; assay type: cell-based; settings: PBMC, at 1 µM
[6] = target: Serine/threonine-protein kinase 32C (Homo sapiens) (UniProt Q86UX6); experiment: Selectivity interaction (KinomeScan (DiscoverX)) EUB0000045b STK32C
[7] = target: Tyrosine-protein kinase JAK1 (Homo sapiens, UniProt P23458); experiment: Selectivity interaction (ProQinase) EUB0000171b JAK1
[8] = target: Glutamate receptor ionotropic, NMDA 2B (Homo sapiens) (UniProt Q13224); experiment: Selectivity interaction (Panel of kinases, GPCRs, ion channels and transporters (enzymatic assay)) EUB0000223bCl GRIN2B
[9] = test system: Tyrosine-protein kinase ABL1 (Homo sapiens), P00519 [Q252H]; experiment: Selectivity interaction (KinomeScan (DiscoverX)) EUB0000092b ABL1; settings: at 10 µM
[10] = target: AMP-activated protein kinase alpha-2/beta-2/gamma-2 (Homo sapiens) (UniProt P54646+O43741+Q9UGJ0); experiment: (§1) Selectivity interaction (LanthaScreen Eu Kinase Binding Assay) EUB0001632a […]; assay type: protein-complex assay; settings: at 10 µM
[11] = target: AMPK alpha2/beta2/gamma1 (Homo sapiens) (UniProt P54646+O43741+P54619); experiment: as §1; assay type: protein-complex assay; settings: at 10 µM
[12] = target: AMPK alpha1/beta2/gamma1 (Homo sapiens) (UniProt O43741+P54619+Q13131); experiment: as §1; assay type: protein-complex assay; settings: at 10 µM
[13] = target: AMPK alpha1/beta1/gamma2 (Homo sapiens) (UniProt Q9UGJ0+Q9Y478+Q13131); experiment: as §1; assay type: protein-complex assay; settings: at 10 µM
[14] = target: AMPK alpha1/beta1/gamma3 (Homo sapiens) (UniProt Q9Y478+Q13131+Q9UGI9); experiment: as §1; assay type: protein-complex assay; settings: at 10 µM

Tyrosine-protein kinase JAK1, sequence (P23458 whole entry): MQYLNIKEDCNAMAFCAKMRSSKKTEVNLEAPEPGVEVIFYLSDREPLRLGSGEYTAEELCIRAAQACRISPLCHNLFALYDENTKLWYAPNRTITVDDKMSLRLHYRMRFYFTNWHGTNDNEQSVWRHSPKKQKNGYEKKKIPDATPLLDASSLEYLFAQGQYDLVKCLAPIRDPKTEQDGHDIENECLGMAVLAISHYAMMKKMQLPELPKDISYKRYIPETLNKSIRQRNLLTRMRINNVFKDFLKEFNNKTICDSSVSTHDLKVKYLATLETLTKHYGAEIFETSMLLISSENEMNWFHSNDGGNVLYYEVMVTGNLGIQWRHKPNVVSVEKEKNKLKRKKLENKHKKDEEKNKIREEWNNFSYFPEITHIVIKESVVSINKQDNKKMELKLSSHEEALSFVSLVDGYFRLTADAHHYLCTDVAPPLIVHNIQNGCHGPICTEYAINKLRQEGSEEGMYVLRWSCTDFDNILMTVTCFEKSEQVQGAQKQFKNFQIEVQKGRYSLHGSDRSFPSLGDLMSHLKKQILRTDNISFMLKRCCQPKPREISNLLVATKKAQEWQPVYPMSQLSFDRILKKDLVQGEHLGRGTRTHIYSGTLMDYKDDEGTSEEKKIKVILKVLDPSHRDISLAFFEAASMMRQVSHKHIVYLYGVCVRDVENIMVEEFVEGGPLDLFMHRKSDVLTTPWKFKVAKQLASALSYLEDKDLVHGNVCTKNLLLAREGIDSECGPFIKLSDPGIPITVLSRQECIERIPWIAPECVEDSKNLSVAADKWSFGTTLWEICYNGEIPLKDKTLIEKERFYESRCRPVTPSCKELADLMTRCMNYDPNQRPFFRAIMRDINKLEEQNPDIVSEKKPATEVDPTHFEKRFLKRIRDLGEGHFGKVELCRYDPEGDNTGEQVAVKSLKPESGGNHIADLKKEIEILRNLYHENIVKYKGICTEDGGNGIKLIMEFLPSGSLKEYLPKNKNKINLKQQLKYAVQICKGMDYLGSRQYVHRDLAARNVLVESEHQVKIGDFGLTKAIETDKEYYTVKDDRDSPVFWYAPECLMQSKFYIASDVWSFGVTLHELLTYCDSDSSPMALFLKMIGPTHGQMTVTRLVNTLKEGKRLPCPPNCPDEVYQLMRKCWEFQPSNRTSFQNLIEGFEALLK
Serine/threonine-protein kinase 32C (Homo sapiens), sequence (Q86UX6 whole entry): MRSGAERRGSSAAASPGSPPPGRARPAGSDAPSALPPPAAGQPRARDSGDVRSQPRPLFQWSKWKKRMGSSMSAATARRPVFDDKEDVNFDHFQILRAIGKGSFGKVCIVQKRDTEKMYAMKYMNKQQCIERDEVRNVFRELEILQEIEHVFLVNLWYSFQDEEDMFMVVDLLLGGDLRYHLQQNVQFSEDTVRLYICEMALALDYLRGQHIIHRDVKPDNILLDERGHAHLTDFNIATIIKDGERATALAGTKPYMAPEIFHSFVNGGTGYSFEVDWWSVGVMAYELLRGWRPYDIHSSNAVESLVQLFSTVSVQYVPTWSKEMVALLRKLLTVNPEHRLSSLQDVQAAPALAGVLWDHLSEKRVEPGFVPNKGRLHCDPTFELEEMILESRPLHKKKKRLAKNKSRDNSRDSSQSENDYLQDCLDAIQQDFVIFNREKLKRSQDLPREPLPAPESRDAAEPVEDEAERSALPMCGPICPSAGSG
Calcium/calmodulin-dependent protein kinase type 1G (Homo sapiens), sequence (Q96NX5 whole entry): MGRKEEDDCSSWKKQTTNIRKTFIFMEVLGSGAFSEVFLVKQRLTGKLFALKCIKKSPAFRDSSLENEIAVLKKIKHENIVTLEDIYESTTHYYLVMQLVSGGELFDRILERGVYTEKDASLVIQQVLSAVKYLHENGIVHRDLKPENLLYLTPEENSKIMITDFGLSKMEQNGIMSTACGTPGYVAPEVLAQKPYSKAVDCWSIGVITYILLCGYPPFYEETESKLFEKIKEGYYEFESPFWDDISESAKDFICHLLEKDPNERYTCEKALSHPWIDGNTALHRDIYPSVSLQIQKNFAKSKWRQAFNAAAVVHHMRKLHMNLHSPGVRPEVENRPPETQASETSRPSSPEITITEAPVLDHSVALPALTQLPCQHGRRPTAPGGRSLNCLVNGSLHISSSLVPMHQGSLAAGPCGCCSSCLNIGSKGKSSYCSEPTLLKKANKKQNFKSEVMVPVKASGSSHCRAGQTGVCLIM
hERG (KCNH2), sequence (Q12809 whole entry, canonical isoform): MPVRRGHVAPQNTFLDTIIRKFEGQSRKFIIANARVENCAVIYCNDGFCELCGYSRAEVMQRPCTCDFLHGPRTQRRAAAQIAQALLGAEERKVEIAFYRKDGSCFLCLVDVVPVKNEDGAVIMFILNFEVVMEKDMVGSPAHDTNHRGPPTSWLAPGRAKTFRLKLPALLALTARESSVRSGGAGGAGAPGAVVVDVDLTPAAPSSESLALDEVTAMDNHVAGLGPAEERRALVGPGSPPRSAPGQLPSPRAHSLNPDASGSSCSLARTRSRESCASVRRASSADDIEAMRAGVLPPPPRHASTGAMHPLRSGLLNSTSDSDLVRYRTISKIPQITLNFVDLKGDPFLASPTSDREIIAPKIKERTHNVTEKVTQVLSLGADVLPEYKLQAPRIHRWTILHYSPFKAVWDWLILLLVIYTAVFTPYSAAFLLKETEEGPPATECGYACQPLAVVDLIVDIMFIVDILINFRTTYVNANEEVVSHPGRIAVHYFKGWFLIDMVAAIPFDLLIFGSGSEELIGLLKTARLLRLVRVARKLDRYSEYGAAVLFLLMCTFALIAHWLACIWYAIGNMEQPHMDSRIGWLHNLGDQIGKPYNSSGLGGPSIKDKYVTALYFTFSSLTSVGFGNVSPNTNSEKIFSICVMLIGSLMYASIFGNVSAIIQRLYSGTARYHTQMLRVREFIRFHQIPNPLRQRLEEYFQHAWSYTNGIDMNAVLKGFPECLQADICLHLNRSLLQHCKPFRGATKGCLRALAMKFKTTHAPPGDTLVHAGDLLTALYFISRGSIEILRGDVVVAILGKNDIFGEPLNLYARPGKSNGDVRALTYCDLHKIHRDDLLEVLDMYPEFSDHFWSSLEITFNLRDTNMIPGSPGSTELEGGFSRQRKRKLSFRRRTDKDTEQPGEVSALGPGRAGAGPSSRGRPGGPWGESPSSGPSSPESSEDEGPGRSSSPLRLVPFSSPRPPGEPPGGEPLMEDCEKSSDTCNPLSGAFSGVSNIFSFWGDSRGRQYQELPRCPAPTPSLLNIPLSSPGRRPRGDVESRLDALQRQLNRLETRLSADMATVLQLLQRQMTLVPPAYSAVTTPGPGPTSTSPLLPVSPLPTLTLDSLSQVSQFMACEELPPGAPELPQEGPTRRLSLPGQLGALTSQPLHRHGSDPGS
AMP-activated protein kinase alpha-2/beta-2/gamma-2 (Homo sapiens), sequence (O43741 whole entry, looked up): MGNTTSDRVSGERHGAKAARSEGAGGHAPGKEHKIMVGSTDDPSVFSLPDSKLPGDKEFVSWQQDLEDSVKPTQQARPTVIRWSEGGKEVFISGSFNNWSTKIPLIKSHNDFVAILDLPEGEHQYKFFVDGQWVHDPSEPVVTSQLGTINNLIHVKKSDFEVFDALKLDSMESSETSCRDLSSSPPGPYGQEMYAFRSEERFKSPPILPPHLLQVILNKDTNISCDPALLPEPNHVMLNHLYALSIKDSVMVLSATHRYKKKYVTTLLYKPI
AMP-activated protein kinase alpha-2/beta-2/gamma-2 (Homo sapiens), sequence (P54646 whole entry, looked up): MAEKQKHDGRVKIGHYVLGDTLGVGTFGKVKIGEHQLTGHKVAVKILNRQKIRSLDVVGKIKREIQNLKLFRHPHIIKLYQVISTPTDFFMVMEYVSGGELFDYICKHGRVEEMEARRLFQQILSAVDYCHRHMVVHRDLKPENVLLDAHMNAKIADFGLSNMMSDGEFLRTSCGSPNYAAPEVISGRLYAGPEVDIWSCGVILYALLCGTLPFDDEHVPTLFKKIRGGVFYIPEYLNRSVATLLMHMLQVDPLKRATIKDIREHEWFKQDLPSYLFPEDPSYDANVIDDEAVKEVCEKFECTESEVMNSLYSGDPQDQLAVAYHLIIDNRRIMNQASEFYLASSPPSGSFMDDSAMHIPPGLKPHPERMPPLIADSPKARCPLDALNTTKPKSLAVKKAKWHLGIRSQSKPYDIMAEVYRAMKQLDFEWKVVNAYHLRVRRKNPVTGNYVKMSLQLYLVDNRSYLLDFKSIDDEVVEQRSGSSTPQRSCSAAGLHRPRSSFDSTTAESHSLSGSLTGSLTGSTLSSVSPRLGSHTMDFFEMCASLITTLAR
AMP-activated protein kinase alpha-2/beta-2/gamma-2 (Homo sapiens), sequence (Q9UGJ0 whole entry, looked up): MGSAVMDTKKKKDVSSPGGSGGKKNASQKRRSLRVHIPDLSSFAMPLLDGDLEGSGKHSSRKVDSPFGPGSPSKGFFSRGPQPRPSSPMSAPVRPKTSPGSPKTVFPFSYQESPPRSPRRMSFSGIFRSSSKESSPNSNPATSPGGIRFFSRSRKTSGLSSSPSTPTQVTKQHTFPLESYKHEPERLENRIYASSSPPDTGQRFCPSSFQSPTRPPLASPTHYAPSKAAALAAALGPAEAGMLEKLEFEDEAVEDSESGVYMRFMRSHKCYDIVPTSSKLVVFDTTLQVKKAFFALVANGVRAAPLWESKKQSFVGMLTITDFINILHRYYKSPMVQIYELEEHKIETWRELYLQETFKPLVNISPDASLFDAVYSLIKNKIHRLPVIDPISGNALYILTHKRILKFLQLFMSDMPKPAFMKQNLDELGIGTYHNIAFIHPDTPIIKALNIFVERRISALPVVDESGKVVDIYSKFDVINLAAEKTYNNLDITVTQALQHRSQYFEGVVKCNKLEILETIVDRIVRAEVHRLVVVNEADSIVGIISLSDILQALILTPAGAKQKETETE

SMILES: CC(=O)c1cc(-c2ccccc2OCC2CC2)c2ncccn12
activity (hERG (KCNH2)): 111%

SMILES: CN(C)C/C=C/C(=O)Nc1ccc(C(=O)N2CCCC(Nc3ncc(Cl)c(-c4c[nH]c5ccccc45)n3)C2)cc1 (configuration not stated)
% of control [1]: 92%

SMILES: CN(C)CCOc1ccc(-c2nc(-c3ccncc3)c(-c3ccc4c(c3)CC/C4=N\O)[nH]2)cc1
% of control [2]: 100%

SMILES: CNC(=O)Nc1ccc(-c2nc(N3CC4CCC(C3)O4)c3cnn(C4CCC5(CC4)OCCO5)c3n2)cc1
% of inhibition [3]: 2%

SMILES: N#Cc1cccc(-c2c[nH]c3ncnc(N4CCOCC4)c23)c1
% of control [4]: 64% | % of inhibition [5]: 10%

SMILES: C=CC(=O)Nc1cc(-n2c(=O)ccc3cnc4ccc(-c5ccc(NS(C)(=O)=O)cc5)cc4c32)ccc1C
% of control ([6]; at 1 µM): 100% | % of control ([6]; at 10 µM): 100%

% of control ([7]; at 1 µM): 98% | % of control ([7]; at 5 µM): 96%
SMILES: C=CC(=O)Nc1cccc(C(=O)Nc2ccc(Nc3cc(-c4[nH]c(SC)nc4C)ccn3)cc2)c1

SMILES: COc1cc(C(=O)N2CC[C@@H](O)[C@@H](N)C2)cc2nc(-c3cc4ccccc4n3CC3CC3)n(C)c12
pXC50 [8]: 4.8 M

SMILES: CCC(=O)N1CCN(c2ccc(-n3c(=O)ccc4cnc5ccc(-c6cnc7ccccc7c6)cc5c43)cc2C(F)(F)F)CC1
% of control [9]: 99%

% of inhibition [10]: 1.19% | % of inhibition [11]: -4.3% | % of inhibition [12]: -9.67% | % of inhibition [13]: 0.872% | % of inhibition [14]: 2.78%
SMILES: Cn1cc(-n2cnc3c(NCc4nc5cc(Cl)c(Cl)cc5[nH]4)nc(N4CCOCC4)nc32)cn1
